Source: article PMC6440977, “Nucleoside analogue activators of cyclic AMP-independent protein kinase A of Trypanosoma” (Nature Communications, 2019)
Where “and” joins values, the source holds several entries; their conditions need not be identical. Equal entries are not always repeated. Entries after “also recorded” stand apart in the source; their conditions may differ. Where two headings read alike, the source gives them in different places.

Legend:
T. brucei BSF cells (WT) = experiment: Alamar blue cell viability assay, wild type; details: for EC50: wild type cells; for IC50: 72 h, read-out: IC50 growth WT;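 for all read-outs here: trypanosomes seeded at 5×10^3 per ml and grown 72 h with compound, then resazurin 0.5 mM added for 4 h as the viability read-out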
[1] = tested on: T. brucei ∆pkar/∆pkar (pkar KO) cells; experiment: microbe, parasite or virus in culture; format: cell-based, Trypanosoma brucei
[2] = target: T. brucei PKAR-PKAC1 holoenzyme (Trypanosoma brucei, UniProt Q9GU80); experiment: biochemical; format: biochemical; details: for In vitro kinase assay: technical replicates
Sequence of T. brucei PKAR-PKAC1 holoenzyme (Q38DR5 entry or part of it): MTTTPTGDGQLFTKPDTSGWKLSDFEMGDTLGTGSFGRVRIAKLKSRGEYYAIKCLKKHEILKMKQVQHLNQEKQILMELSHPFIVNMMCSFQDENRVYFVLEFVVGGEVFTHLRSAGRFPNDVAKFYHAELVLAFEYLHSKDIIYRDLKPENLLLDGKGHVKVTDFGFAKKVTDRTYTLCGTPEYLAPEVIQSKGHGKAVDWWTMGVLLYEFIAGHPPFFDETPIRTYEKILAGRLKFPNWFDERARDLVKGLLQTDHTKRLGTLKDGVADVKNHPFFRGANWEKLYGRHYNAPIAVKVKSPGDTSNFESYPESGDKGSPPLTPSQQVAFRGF
Sequence of T. brucei PKAR-PKAC1 holoenzyme (Q9GU80 entry or part of it): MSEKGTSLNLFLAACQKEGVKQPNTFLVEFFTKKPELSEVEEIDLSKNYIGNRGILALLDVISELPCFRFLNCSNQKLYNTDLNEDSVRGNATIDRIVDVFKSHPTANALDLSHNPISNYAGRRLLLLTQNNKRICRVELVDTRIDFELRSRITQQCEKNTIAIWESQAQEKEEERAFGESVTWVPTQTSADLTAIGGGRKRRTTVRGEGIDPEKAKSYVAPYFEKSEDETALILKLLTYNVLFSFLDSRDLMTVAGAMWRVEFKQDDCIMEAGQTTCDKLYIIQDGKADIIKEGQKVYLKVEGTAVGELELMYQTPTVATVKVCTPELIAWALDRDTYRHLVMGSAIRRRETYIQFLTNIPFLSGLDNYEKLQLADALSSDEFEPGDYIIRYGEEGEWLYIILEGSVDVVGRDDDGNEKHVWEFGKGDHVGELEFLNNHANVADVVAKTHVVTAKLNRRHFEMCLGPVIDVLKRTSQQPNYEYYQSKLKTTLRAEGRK

T. brucei PKA = T. brucei PKA (Trypanosoma brucei brucei, UniProt Q9GU80); experiment: In vivo PKA reporter assay (VASP Ser-157 phosphorylation, western blot); format: cell-based; details: for EC50: read-out: EC50 in vivo PKA assay, VASP reporter, 15 min treatment, mean ± SD; for effect on in vivo PKA activity (VASP phosphorylation), in words: wild type background; for % VASP phosphorylation: CpdA 10 µM, replicates;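 for % VASP phosphorylation: Phosphorylated VASP as percent of total VASP band signal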;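 for all read-outs here: T. brucei cells expressing human VASP as heterologous PKA substrate, compound exposure at 37 °C, western blot of phospho (50 kDa) versus unphosphorylated (46 kDa) VASP band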
Sequence of T. brucei PKA (Q38DS1 entry or part of it): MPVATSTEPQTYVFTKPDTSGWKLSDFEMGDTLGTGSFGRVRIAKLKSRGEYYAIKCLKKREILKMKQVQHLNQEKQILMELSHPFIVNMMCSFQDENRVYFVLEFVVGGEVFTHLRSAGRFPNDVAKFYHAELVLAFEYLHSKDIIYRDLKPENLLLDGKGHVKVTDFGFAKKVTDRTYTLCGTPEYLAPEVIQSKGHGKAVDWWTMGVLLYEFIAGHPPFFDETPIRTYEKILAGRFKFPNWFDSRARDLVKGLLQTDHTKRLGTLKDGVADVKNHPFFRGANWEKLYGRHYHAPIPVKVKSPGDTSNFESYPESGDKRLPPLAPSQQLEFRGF
Sequence of T. brucei PKA (Q38DR5 entry or part of it, further chain): as the sequence (Q38DR5 entry or part of it) above

human PKARIα = target: T1, human PKARIα (Homo sapiens, UniProt P10644); experiment: Binding by isothermal titration calorimetry (ITC)
T1 construct: The full length ORFs (amplified with primers introducing the respective); 6xHis followed by TEV site (N); made in house; host or cells: E. coli Rosetta D3
T1 sequence (P10644 whole entry): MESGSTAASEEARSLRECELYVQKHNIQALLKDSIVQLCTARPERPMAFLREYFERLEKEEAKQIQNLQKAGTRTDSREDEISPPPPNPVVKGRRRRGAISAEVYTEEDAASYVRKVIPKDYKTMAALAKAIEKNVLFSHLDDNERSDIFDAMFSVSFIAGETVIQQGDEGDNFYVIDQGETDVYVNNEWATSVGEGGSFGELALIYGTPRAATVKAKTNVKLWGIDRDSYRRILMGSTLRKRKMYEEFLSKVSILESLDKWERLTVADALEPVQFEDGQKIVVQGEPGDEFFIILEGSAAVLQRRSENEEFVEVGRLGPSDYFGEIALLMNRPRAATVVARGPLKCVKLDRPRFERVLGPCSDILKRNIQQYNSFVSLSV

T. brucei PKAR(199–499) = T. brucei PKAR(199–499) (Trypanosoma brucei, UniProt Q9GU80); experiment: biochemical; format: binding; design: Thermodynamics (ITC) -TΔS / Thermodynamics (ITC) ΔG / Thermodynamics (ITC) ΔH: unit: kcal/mol
Sequence of T. brucei PKAR(199–499) (Q9GU80 entry or part of it): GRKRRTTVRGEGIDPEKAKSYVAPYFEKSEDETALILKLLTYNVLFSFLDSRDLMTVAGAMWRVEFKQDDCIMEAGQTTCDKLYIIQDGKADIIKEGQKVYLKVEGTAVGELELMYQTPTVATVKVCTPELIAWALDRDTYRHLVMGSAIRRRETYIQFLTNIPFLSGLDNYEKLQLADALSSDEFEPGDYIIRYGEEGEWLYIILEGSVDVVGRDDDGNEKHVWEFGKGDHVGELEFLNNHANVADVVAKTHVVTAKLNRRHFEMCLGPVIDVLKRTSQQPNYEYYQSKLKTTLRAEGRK

intracellular cAMP = experiment: Cyclic AMP measurement (intracellular cAMP content); format: cell-based, Trypanosoma brucei; details: for pmol cAMP / 10^9 cells: independent replicates
[3] = tested on: cAMP release into the medium; experiment: Fraction of cAMP in cell supernatant versus total cell lysate; details: CpdA treatment 10 µM, 15 min
[4] = tested on: T. brucei PKA holoenzyme (PKAR-Ty1); format: biochemical, Trypanosoma brucei; details: control without cyclic nucleotide, 5 µM PKI(5-24)
[5] = tested on: T. brucei PKA holoenzyme (Ty1-PKAC1); format: biochemical, Trypanosoma brucei; details: for in vitro kinase assay [CPM] / in vitro kinase assay [CPM], PKI: 5 µM PKI(5-24); for in vitro kinase assay [CPM], PKI: control without cyclic nucleotide
[6] = tested on: T. brucei PKA holoenzyme (HA-PKAC2); format: biochemical, Trypanosoma brucei; details: control without cyclic nucleotide, 5 µM PKI(5-24)
[7] = read-out: EC50, Alamar blue cell viability assay, WT, individual replicate results
[8] = read-out: EC50, Alamar blue cell viability assay, KO; individual replicate results; pkar KO cells
[9] = Trypanosoma brucei, 72 h, read-out: IC50 growth pkar KO

NC(=O)c1cn([C@@H]2O[C@H](CO)[C@@H](O)[C@H]2O)c2ncnc(N)c12 [Sangi]
EC50 (T. brucei BSF cells (WT); Trypanosoma brucei, read-out: EC50, Alamar blue cell viability assay, WT, individual replicate results): 0.697 µM | EC50 (T. brucei BSF cells (WT); [7]): 0.895 µM and 0.53 µM and 0.73 µM and 0.713 µM and 0.726 µM and 0.707 µM | EC50 [1, 8]: 1.57 µM and 0.868 µM and 2.2 µM and 1.91 µM and 1.63 µM and 1.94 µM and 1.36 µM and 0.902 µM

Nc1ncnc2c1c(I)cn2[C@@H]1O[C@H](CO)[C@@H](O)[C@H]1O [5-I-Tu, 7-Iodo-7-deazaadenosine]
EC50 [2]: 0.203 ± 0.079 µM | In vitro kinase assay ([2]; 0.001 µM): 0.15 U/ml and 0.13 U/ml | In vitro kinase assay ([2]; 0.05 µM): 0.22 U/ml and 0.25 U/ml | In vitro kinase assay ([2]; 0.1 µM): 0.4 U/ml and 0.36 U/ml | In vitro kinase assay ([2]; 0.2 µM): 0.45 U/ml | In vitro kinase assay ([2]; 0.39 µM): 0.75 U/ml and 0.61 U/ml | In vitro kinase assay ([2]; 0.78 µM): 0.77 U/ml and 0.8 U/ml | In vitro kinase assay ([2]; 1.56 µM): 0.79 U/ml and 0.91 U/ml | In vitro kinase assay ([2]; 3.13 µM): 0.81 U/ml and 0.96 U/ml | IC50 (T. brucei BSF cells (WT); Trypanosoma brucei): 0.33 ± 0.038 µM | EC50 (T. brucei PKA): 0.39 ± 0.02 µM | binding to purified human PKARIα, in words (human PKARIα): did not bind | Kd (T. brucei PKAR(199–499)): 0.032 ± 0.009 µM | Thermodynamics (ITC) -TΔS (T. brucei PKAR(199–499); independent replicates): 6.36 and 3.65 and 4.67 | Thermodynamics (ITC) ΔG (T. brucei PKAR(199–499); independent replicates): -10.1 and -10.5 | Thermodynamics (ITC) ΔH (T. brucei PKAR(199–499); independent replicates): -16.5 and -14.1 and -14.8 | IC50 [1, 9]: 0.346 ± 0.041 µM

Nc1ncnc2c1c(Br)cn2[C@@H]1O[C@H](CO)[C@@H](O)[C@H]1O [5-Br-Tu, 7-Bromo-7-deazaadenosine]
EC50 [2]: 1.7 ± 1.4 µM | In vitro kinase assay ([2]; 0.049 µM): 0.15 U/ml and 0.17 U/ml | In vitro kinase assay ([2]; 0.098 µM): 0.25 U/ml and 0.22 U/ml | In vitro kinase assay ([2]; 0.195 µM): 0.27 U/ml and 0.24 U/ml | In vitro kinase assay ([2]; 0.391 µM): 0.37 U/ml and 0.39 U/ml | In vitro kinase assay ([2]; 0.781 µM): 0.53 U/ml and 0.48 U/ml | In vitro kinase assay ([2]; 1.563 µM): 0.72 U/ml and 0.59 U/ml | In vitro kinase assay ([2]; 3.125 µM): 0.85 U/ml and 0.72 U/ml | In vitro kinase assay ([2]; 6.25 µM): 0.89 U/ml and 1.03 U/ml | In vitro kinase assay ([2]; 12.5 µM): 1.09 U/ml and 1.13 U/ml | In vitro kinase assay ([2]; 25 µM): 1.41 U/ml and 1.21 U/ml | In vitro kinase assay ([2]; 50 µM): 1.29 U/ml and 1.22 U/ml | IC50 (T. brucei BSF cells (WT); Trypanosoma brucei): 0.874 ± 0.122 µM | EC50 (T. brucei PKA): 0.625 ± 0.066 µM | IC50 [1, 9]: 1.01 ± 0.095 µM

OCCN(CCO)c1nc(N2CCCCC2)c2nc(N(CCO)CCO)nc(N3CCCCC3)c2n1 [Dipyridamole]
effect in the in vitro kinase assay, in words [2]: did not have any effect; also recorded: No effect | change of intracellular cAMP content, in words (intracellular cAMP; 100 µM): moderate increase | pmol cAMP / 10^9 cells (intracellular cAMP; 100 µM, 15 min, listed as Dip): 61.8873 pmol cAMP / 10^9 cells and 63.0147 pmol cAMP / 10^9 cells and 44.8294 pmol cAMP / 10^9 cells and 64.5236 pmol cAMP / 10^9 cells and 80.946 pmol cAMP / 10^9 cells and 55.0958 pmol cAMP / 10^9 cells | pmol cAMP / 10^9 cells (intracellular cAMP; 100 µM, 90 min, listed as Dip): 47.769 pmol cAMP / 10^9 cells and 56.3468 pmol cAMP / 10^9 cells and 59.8493 pmol cAMP / 10^9 cells and 40.4717 pmol cAMP / 10^9 cells and 46.5418 pmol cAMP / 10^9 cells and 46.5962 pmol cAMP / 10^9 cells | IC50 (T. brucei BSF cells (WT); Trypanosoma brucei): 9.9 ± 1 µM | induction of VASP phosphorylation in pkar knock out, in words (T. brucei PKA; homozygous deletion of PKAR): no induction | EC50 (T. brucei PKA): 22.4 ± 4.2 µM | effect on in vivo PKA activity (VASP phosphorylation), in words (T. brucei PKA): dose- and time-dependent induction | IC50 [1, 9]: 16.3 ± 1.8 µM

OCCN(CCO)c1nc(N2CCCCC2)c2nc(N(CCO)CCO)nc(N3CCCCC3)c2n1 [Dipy]
EC50 (T. brucei BSF cells (WT); [7]): 12.1 µM and 6.38 µM and 10.7 µM and 10.6 µM and 10.9 µM and 16.8 µM and 6.54 µM and 7.48 µM and 7.07 µM and 13.4 µM and 7.42 µM | EC50 ([1]; individual replicate results; pkar KO cells; read-out: EC50, Alamar blue cell viability assay, KO): 12.4 µM and 21.9 µM and 24.9 µM and 25.2 µM and 9.93 µM and 13.6 µM and 21.1 µM and 14.9 µM and 8.89 µM and 13.3 µM and 13.1 µM

NC(=O)c1cn([C@@H]2O[C@H](CO)[C@@H](O)[C@H]2O)c2ncnc(N)c12 [Sangivamycin, 7-Carboxamido-7-deazaadenosine]
EC50 [2]: 10.8 µM | In vitro kinase assay ([2]; 0.049 µM): 0.15 U/ml and 0.17 U/ml | In vitro kinase assay ([2]; 0.098 µM): 0.15 U/ml | In vitro kinase assay ([2]; 0.195 µM): 0.19 U/ml and 0.18 U/ml | In vitro kinase assay ([2]; 0.391 µM): 0.2 U/ml and 0.15 U/ml | In vitro kinase assay ([2]; 0.781 µM): 0.17 U/ml | In vitro kinase assay ([2]; 1.563 µM): 0.2 U/ml and 0.16 U/ml | In vitro kinase assay ([2]; 3.125 µM): 0.22 U/ml and 0.24 U/ml | In vitro kinase assay ([2]; 6.25 µM): 0.29 U/ml and 0.28 U/ml | In vitro kinase assay ([2]; 12.5 µM): 0.33 U/ml and 0.31 U/ml | In vitro kinase assay ([2]; 25 µM): 0.44 U/ml and 0.4 U/ml | In vitro kinase assay ([2]; 50 µM): 0.44 U/ml | IC50 (T. brucei BSF cells (WT); Trypanosoma brucei): 0.713 ± 0.04 µM | EC50 (T. brucei PKA): 39.3 ± 5.6 µM | EC50 (T. brucei PKA; listed as sangivamycin): 39 µM | IC50 [1, 9]: 1.55 ± 0.171 µM

Nc1ncnc2c1c(I)cn2[C@@H]1O[C@H](CO)[C@@H](O)[C@H]1O [5ITu]
EC50 (T. brucei BSF cells (WT); [7]): 0.134 µM and 0.378 µM and 0.467 µM and 0.417 µM and 0.291 µM and 0.39 µM and 0.317 µM and 0.247 µM | EC50 [1, 8]: 0.365 µM and 0.366 µM and 0.542 µM and 0.168 µM and 0.345 µM and 0.276 µM and 0.265 µM and 0.448 µM

COc1ccc(C2=NN(C3CCCCCC3)C(=O)[C@@H]3CC=CC[C@H]23)cc1OCCCCOc1ccc(-c2nn[nH]n2)cc1 [CpdA]
increase of intracellular cAMP content (intracellular cAMP; 10 µM, 15 min): up to 600 fold | pmol cAMP / 10^9 cells (intracellular cAMP; 10 µM, 15 min): 7046.18 pmol cAMP / 10^9 cells and 6980.91 pmol cAMP / 10^9 cells and 7465.44 pmol cAMP / 10^9 cells and 6294.38 pmol cAMP / 10^9 cells and 9321.55 pmol cAMP / 10^9 cells and 2818.14 pmol cAMP / 10^9 cells | % cAMP, total, mean (intracellular cAMP; CpdA treatment 10 µM, 15 min, total cAMP content set to 100%, mean of technical replicates): 94.1035% | % cAMP, total (intracellular cAMP; CpdA treatment 10 µM, 15 min, total cAMP content set to 100%, technical replicates): 100% and 88.2071% | nM cAMP, total (intracellular cAMP; CpdA treatment 10 µM, 15 min, total, technical replicates): 1891.66 nM and 1668.58 nM | % cAMP, supernatant, mean ([3]; mean of technical replicates): 3.201% | nM cAMP, supernatant ([3]; technical replicates): 74.7051 nM and 46.4145 nM | % cAMP, supernatant ([3]; total cAMP content set to 100%): 3.949% and 2.454% | % VASP phosphorylation (T. brucei PKA; 0 min): 37.2015% and 33.1548% and 30.9406% | % VASP phosphorylation (T. brucei PKA; 5 min): 28.9269% and 25.7882% and 23.4179% | % VASP phosphorylation (T. brucei PKA; 10 min): 28.8598% and 22.1225% and 21.1026% | % VASP phosphorylation (T. brucei PKA; 15 min): 26.7433% and 23.5931% and 18.9766% | effect on in vivo PKA activity (VASP phosphorylation), in words (T. brucei PKA): did not elicit any change

Nc1ncnc2c1c(Br)cn2[C@@H]1O[C@H](CO)[C@@H](O)[C@H]1O [5BrTu]
EC50 (T. brucei BSF cells (WT); [7]): 0.615 µM and 1.55 µM and 1.12 µM and 0.583 µM and 1.08 µM and 0.749 µM and 0.605 µM and 0.692 µM | EC50 [1, 8]: 0.68 µM and 1.19 µM and 1.27 µM and 1.09 µM and 0.619 µM and 0.797 µM and 1.17 µM

PKI(5–24)
in vitro kinase assay [CPM], PKI [4]: 1399.6 CPM | in vitro kinase assay [CPM] ([5]; Ty1-PKAC1#1): 1999.9 CPM | in vitro kinase assay [CPM] ([5]; Ty1-PKAC1#2): 1386.5 CPM | in vitro kinase assay [CPM] ([5]; Ty1-PKAC1-dead#11): 834.7 CPM | in vitro kinase assay [CPM] ([5]; Ty1-PKAC1-dead#12): 571.7 CPM | in vitro kinase assay [CPM] ([5]; Ty1-PKAC1-dead#14): 1493.5 CPM | in vitro kinase assay [CPM] ([5]; pull down from WT cells (negative control)): 398.6 CPM | phosphorylation of kemptide, in words ([5]; 5 µM inhibitor): inhibited | in vitro kinase assay [CPM], PKI ([5]; Supp Fig 3b): 963.87 CPM | in vitro kinase assay [CPM], PKI ([5]; Supp Fig 3c): 528.13 CPM | in vitro kinase assay [CPM], PKI [6]: 483.2 CPM
